Results on 17 compounds are retold here after PubChem BioAssay (NCI).

Test systems include ACHN renal; EKVX NSCLC; HS 578T breast; IGROV1 ovarian; K-562 leukemia; LOX IMVI melanoma; NCI/ADR-RES ovarian; SF-295 CNS; SR leukemia; T-47D breast.
Test in all cases: growth of human tumour cells (NCI), 48 h

The structures appear in SMILES notation.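 Cultured in 96-well plates, cells were exposed to test compound for 48 hours across five concentrations. Definition used: TGI = concentration required for complete inhibition of growth.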

Consider `O=C1CSSCC(=O)Nc2ccccc2N1`, for which the TGI in the assay with ACHN renal, in the assay on EKVX NSCLC, in the assay on HS 578T breast, in the assay on IGROV1 ovarian, in the assay on K-562 leukemia and in the assay on LOX IMVI melanoma was > 100 µM each time. Moreover, the TGI in the assay with NCI/ADR-RES ovarian, with SF-295 CNS, with SR leukemia and in the assay with T-47D breast was > 100 µM each time.
As to `OC1(c2ccc(Cl)cc2)C(N2CCCC2)c2ccccc2C2=NCCN21` (stereo not given), the TGI is > 100 µM in the assay with ACHN renal; > 100 µM in the assay on EKVX NSCLC; 89.9 µM in the assay on HS 578T breast; 52.7 µM in the assay with IGROV1 ovarian; 47.5 µM in the assay with K-562 leukemia; 36.7 µM in the assay with LOX IMVI melanoma. Moreover, the TGI with NCI/ADR-RES ovarian stood at 59.9 µM; in the assay on SF-295 CNS it was 30.9 µM; in the assay on SR leukemia it was 41.1 µM; in the assay with T-47D breast, 41 µM.
Regarding `CC(C)NC(NC(C)C)=C(S(=O)(=O)C(F)(F)C(F)(F)C(F)(F)C(F)(F)F)S(=O)(=O)C(F)(F)C(F)(F)C(F)(F)C(F)(F)F`, the TGI in the assay on ACHN renal, in the assay on EKVX NSCLC, in the assay with HS 578T breast, in the assay on IGROV1 ovarian, in the assay on K-562 leukemia and in the assay on LOX IMVI melanoma was > 100 µM throughout. Also, the TGI in the assay with NCI/ADR-RES ovarian, in the assay on SF-295 CNS, with SR leukemia and with T-47D breast was > 100 µM throughout.
As for `CC1(C)C2CCC(CN)(C2)C1N` (stereo not given), the TGI in the assay with ACHN renal, in the assay on EKVX NSCLC, in the assay on HS 578T breast, in the assay on IGROV1 ovarian, in the assay on K-562 leukemia and in the assay on LOX IMVI melanoma was > 100 µM throughout. For the same compound, the TGI with NCI/ADR-RES ovarian, with SF-295 CNS, in the assay with SR leukemia and in the assay on T-47D breast was > 100 µM in each case.
As for `COC(=O)C1=C(O)C(C(=O)OC)[C@]2(O)[C@H](C(=O)OC)[C@H]1C[C@@H](c1ccc(OC)c(OC)c1)[C@H]2C(=O)OC` (stereo not given in full), the TGI was > 100 µM with ACHN renal; > 100 µM with EKVX NSCLC; > 100 µM in the assay with HS 578T breast; > 100 µM in the assay with IGROV1 ovarian; 77.3 µM with K-562 leukemia; 29.6 µM in the assay on LOX IMVI melanoma. Besides, the TGI in the assay with NCI/ADR-RES ovarian was 54.5 µM; in the assay on SF-295 CNS it was 94.7 µM; with SR leukemia, 46.6 µM; in the assay with T-47D breast it was > 100 µM.
Turning to `c1ccc(-c2nc3ccccc3n3c(CN4CCCCC4)nnc23)cc1`, the TGI in the assay on ACHN renal, in the assay on EKVX NSCLC, in the assay on HS 578T breast, in the assay on IGROV1 ovarian, with K-562 leukemia and in the assay on LOX IMVI melanoma was > 100 µM in each case. Moreover, the TGI in the assay on NCI/ADR-RES ovarian, in the assay with SF-295 CNS, with SR leukemia and with T-47D breast was > 100 µM throughout.
Take `CN(CCC(=O)O)C1=Nc2ccc(Cl)cc2C(c2ccccc2)=[N+]([O-])C1`: the TGI in the assay on ACHN renal, in the assay with EKVX NSCLC, in the assay with HS 578T breast, in the assay with IGROV1 ovarian, with K-562 leukemia and in the assay on LOX IMVI melanoma was > 100 µM in each case. For the same compound, the TGI in the assay with NCI/ADR-RES ovarian, in the assay with SF-295 CNS, in the assay with SR leukemia and in the assay on T-47D breast was > 100 µM throughout.
For `Cc1ccc(/C(Cl)=C/C=C(C#N)C#N)cc1`, the TGI is 5.29 µM in the assay on ACHN renal; 27.5 µM in the assay on EKVX NSCLC; 5.58 µM in the assay on HS 578T breast; 16.2 µM in the assay on IGROV1 ovarian; 19.4 µM with K-562 leukemia; 3.82 µM in the assay on LOX IMVI melanoma. The TGI was 4.48 µM in the assay on NCI/ADR-RES ovarian, 26.9 µM with SF-295 CNS, 7.47 µM in the assay with SR leukemia and > 100 µM with T-47D breast.
On to `O=c1[nH]nc(-c2ccccc2)n1-c1ccncc1`, for which the TGI in the assay on ACHN renal, in the assay on EKVX NSCLC, with HS 578T breast, with IGROV1 ovarian, with K-562 leukemia and with LOX IMVI melanoma was > 100 µM in each case. Further, the TGI in the assay on NCI/ADR-RES ovarian, in the assay with SF-295 CNS, with SR leukemia and in the assay on T-47D breast was > 100 µM each time.
Take `COC(=O)CC(c1cn(S(=O)(=O)c2ccc(C)cc2)c2ccccc12)C1C[C@@H](C(=O)OC)N(C(=O)OC(C)(C)C)C1=O` (stereo not given in full): the TGI with ACHN renal, with EKVX NSCLC, in the assay on HS 578T breast, with IGROV1 ovarian, in the assay on K-562 leukemia and with LOX IMVI melanoma was > 100 µM each time. For the same compound, the TGI in the assay with NCI/ADR-RES ovarian is > 100 µM; in the assay with SF-295 CNS, > 100 µM; in the assay with SR leukemia, 10.4 µM; with T-47D breast it was > 100 µM.
As to `Nc1cccnc1NCC1(CO)CCCC1`, the TGI in the assay with ACHN renal, with EKVX NSCLC, in the assay with HS 578T breast, in the assay on IGROV1 ovarian, with K-562 leukemia and in the assay with LOX IMVI melanoma was > 100 µM each time. The TGI in the assay with NCI/ADR-RES ovarian, with SF-295 CNS, with SR leukemia and in the assay on T-47D breast was > 100 µM each time.
Take `CC(CCC(=O)O)(c1ccc(O)cc1)c1ccc(O)cc1`: the TGI in the assay with ACHN renal, with EKVX NSCLC, with HS 578T breast, in the assay on IGROV1 ovarian, in the assay with K-562 leukemia and in the assay on LOX IMVI melanoma was > 100 µM throughout. For the same compound, the TGI with NCI/ADR-RES ovarian, with SF-295 CNS, in the assay with SR leukemia and in the assay with T-47D breast was > 100 µM in each case.
As for `Cc1cc2cc3c(cc2c(-c2ccc([N+](=O)[O-])cc2)n1)OCO3`, the TGI with ACHN renal was > 100 µM; in the assay with EKVX NSCLC it was > 100 µM; with HS 578T breast, > 100 µM; in the assay with IGROV1 ovarian, 54.9 µM; with K-562 leukemia, > 100 µM; with LOX IMVI melanoma, > 100 µM. In addition, the TGI in the assay with NCI/ADR-RES ovarian, with SF-295 CNS, in the assay with SR leukemia and in the assay with T-47D breast was > 100 µM throughout.
Regarding `CCCCCCCCCCCCN(CC(O)C(O)C(OC1OC(CO)C(O)C(O)C1O)C(O)CO)C(=O)CCCCCCCCCCC` (stereo not given), the TGI in the assay on ACHN renal stood at 31 µM; in the assay on EKVX NSCLC it was 34.4 µM; in the assay on HS 578T breast, 82.7 µM; with IGROV1 ovarian, 35.8 µM; in the assay with K-562 leukemia, 35.5 µM; with LOX IMVI melanoma, 41.3 µM. Besides, the TGI in the assay with NCI/ADR-RES ovarian is 49.7 µM; in the assay with SF-295 CNS it was 37.3 µM; with SR leukemia, 57.8 µM; with T-47D breast, 62.3 µM.
On to `c1nc(N2CC2)c2cnn(C3CCCCO3)c2n1` (stereo not given), for which the TGI in the assay on ACHN renal, with EKVX NSCLC, with HS 578T breast, in the assay with IGROV1 ovarian, in the assay with K-562 leukemia and with LOX IMVI melanoma was > 100 µM in each case. The TGI with NCI/ADR-RES ovarian, in the assay with SF-295 CNS, with SR leukemia and in the assay on T-47D breast was > 100 µM in each case.
For the compound `O=C1c2[nH]c3ccc(Br)cc3c2CCN1Cc1ccc(Cl)cc1`, the TGI in the assay with ACHN renal is 22.7 µM; in the assay on EKVX NSCLC, > 100 µM; with HS 578T breast it was 43.3 µM; with IGROV1 ovarian, 35.5 µM; in the assay on K-562 leukemia, > 100 µM; with LOX IMVI melanoma, 25.9 µM. The TGI is 40.6 µM in the assay on NCI/ADR-RES ovarian, 26.2 µM with SF-295 CNS, 44.5 µM with SR leukemia and 29.2 µM with T-47D breast.
On to `COc1cc2ncnc(Nc3cccc(Cl)c3)c2cc1OC`, for which the TGI in the assay on ACHN renal was found to be 54.5 µM; in the assay with EKVX NSCLC, 15.7 µM; with HS 578T breast, 25 µM; in the assay on IGROV1 ovarian it was 10.3 µM; in the assay on K-562 leukemia, 47.3 µM; in the assay on LOX IMVI melanoma, 43 µM. The TGI with NCI/ADR-RES ovarian is 20.3 µM; with SF-295 CNS, 42.4 µM; with SR leukemia, 24.1 µM; with T-47D breast it was > 67.1 µM.
